Here are results for six compounds from US8993574B2, “Pyrrole antifungal agents” (F2G Ltd, priority 2008, dated 2015).

≈ marks a conversion by molar mass, not a printed value.

Holding throughout (format): cell-based
Assay [1] deals with Aspergillus flavus. Briefly: MIC, YAG medium. Particulars: 24 h at 35° C, MIC banded into grades; for MIC: Aspergillus flavus, 24 h, read-out: MIC grade, A. flavus. The essentials:
(§1)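 Spores from 5-day Sabouraud agar cultures were suspended in YAG medium (1% glucose, 1% ammonium chloride, 0.5% yeast extract) at final inocula of 1−2×10^4 cfu/mL against doubling dilutions of compound (50-0.05 mg/L; 0.5-0.0005 mg/L on repeat). Plates were incubated 24 h at 35° C. MIC was the lowest concentration giving >70% growth inhibition by OD485 versus drug-free control.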

The subject of assay [2] is Aspergillus fumigatus AF210. Briefly: MIC, YAG medium. Particulars: 24 h at 35° C, MIC banded into grades; for MIC: Aspergillus fumigatus, read-out: MIC grade, A. fumigatus 210. The method in brief:
as §1

Assay [3] has as its system Aspergillus fumigatus AF293. Briefly: MIC, YAG medium. Conditions: 24 h at 35° C, MIC banded into grades; for MIC: Aspergillus fumigatus, read-out: MIC grade, A. fumigatus. The essentials:
as §1

In assay [4] the test system is Aspergillus niger. Briefly: MIC, YAG medium. Particulars: 24 h at 35° C, MIC banded into grades; for MIC: Aspergillus niger, read-out: MIC grade, A. niger. The essentials:
as §1

The subject of assay [5] is Aspergillus terreus AT49. Briefly: MIC, YAG medium. Conditions: 24 h at 35° C, MIC banded into grades; for MIC: Aspergillus terreus, read-out: MIC grade, A. terreus 49. The essentials: as §1
Assay [6] relates to Aspergillus terreus AT4. Briefly: MIC, YAG medium. Conditions: 24 h at 35° C, MIC banded into grades; for MIC: Aspergillus terreus, read-out: MIC grade, A. terreus. The method in brief:
as §1

Assay [7] relates to Aspergillus flavus. Briefly: MIC, RPMI medium. Conditions: MIC banded into grades; for MIC: Aspergillus flavus, read-out: MIC grade, A. flavus. The essentials: (§2)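 Broth microdilution in RPMI with 2% glucose, 0.135 M MOPS pH 7.0; compounds as doubling dilutions, 50-0.05 mg/L, inoculum 1−2×10^4 cfu/mL. Incubated 24-48 h at 35° C; growth by OD 485 nm. MIC is lowest concentration giving >80% growth inhibition versus drug-free control.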

Assay [8] deals with Aspergillus fumigatus AF210. Briefly: MIC, RPMI medium. Conditions: for MIC grade, A. fumigatus 210: MIC banded into grades; for MIC: Aspergillus fumigatus, AF210, MIC banded into grades, read-out: MIC grade, A. fumigatus 210. The essentials:
as §2

Assay [9] deals with Aspergillus fumigatus AF293. Briefly: MIC, RPMI medium. Particulars: for MIC grade, A. fumigatus: MIC banded into grades; for MIC: Aspergillus fumigatus, AF293, MIC banded into grades, read-out: MIC grade, A. fumigatus. The method in brief: as §2
Assay [10] deals with Aspergillus niger. Briefly: MIC, RPMI medium. Conditions: MIC banded into grades; for MIC: Aspergillus niger, read-out: MIC grade, A. niger. The essentials:
as §2

For assay [11], the system named is Aspergillus terreus AT49. Briefly: MIC, RPMI medium. Conditions: for MIC grade, A. terreus 49: MIC banded into grades; for MIC: Aspergillus terreus, AT49, MIC banded into grades, read-out: MIC grade, A. terreus 49. The method in brief: as §2
Assay [12] relates to Aspergillus terreus AT4. Briefly: MIC, RPMI medium. Particulars: for MIC grade, A. terreus: MIC banded into grades; for MIC: Aspergillus terreus, AT4, MIC banded into grades, read-out: MIC grade, A. terreus. The essentials: as §2
The next assay has as its system Candida albicans. Briefly: MIC, RPMI medium. Particulars: 24-48 h at 35° C., >80% growth inhibition, banded into grades; for MIC: Candida albicans. The method in brief: as §2
The test system of the next assay is Candida glabrata. Briefly: MIC, RPMI medium. Particulars: 24-48 h at 35° C., >80% growth inhibition, banded into grades; for MIC: Nakaseomyces glabratus. The method in brief:
as §2

For a further assay, the system named is Candida krusei. Briefly: MIC, RPMI medium. Conditions: 24-48 h at 35° C., >80% growth inhibition, banded into grades; for MIC: Pichia kudriavzevii. The essentials:
as §2

The subject of the next assay is Candida parapsilosis. Briefly: MIC, RPMI medium. Particulars: 24-48 h at 35° C., >80% growth inhibition, banded into grades; for MIC: Lodderomyces parapsilosis. The essentials: as §2
The next assay concerns Candida tropicalis. Briefly: MIC, RPMI medium. Particulars: 24-48 h at 35° C., >80% growth inhibition, banded into grades; for MIC: Candida tropicalis. The essentials:
as §2

Turning to `COCCn1c(C)cc(-c2ccccc2)c1C(=O)C(=O)Nc1ccccc1` [Example 60, 2-[1-(2-Methoxy-ethyl)-5-methyl-3-phenyl-1H-pyrrol-2-yl]-2-oxo-N-phenyl-1-acetamide], the “MIC grade, A. flavus” value against Aspergillus flavus [1] and in the assay with Aspergillus flavus [7] was 1 (a grade of 1 represents an MIC of greater than 10 mg/L) in each case. Besides, the “MIC grade, A. fumigatus 210” value in [2] and in assay [8] was 2 (A grade of 2 represents an MIC of from 1 to 10 mg/L) throughout. Besides, the “MIC grade, A. fumigatus” value in assay [3] and in assay [9] was 2 (A grade of 2 represents an MIC of from 1 to 10 mg/L) in each case. In addition, the “MIC grade, A. niger” value against Aspergillus niger [4] and with Aspergillus niger [10] was 2 (A grade of 2 represents an MIC of from 1 to 10 mg/L) throughout. Besides, the “MIC grade, A. terreus 49” value with Aspergillus terreus AT49 [5] was 2 (A grade of 2 represents an MIC of from 1 to 10 mg/L); in the assay on Aspergillus terreus AT49 [11], 1 (a grade of 1 represents an MIC of greater than 10 mg/L). The “MIC grade, A. terreus” value with Aspergillus terreus AT4 [6] is 2 (A grade of 2 represents an MIC of from 1 to 10 mg/L); with Aspergillus terreus AT4 [12] it was 1 (a grade of 1 represents an MIC of greater than 10 mg/L). Further, in the assay on Candida albicans, the “Candida MIC, C. albicans” value is reported as 3 (A grade of 3 represents an MIC of less than 1 mg/L). Further, the “Candida MIC, C. glabrata” value in the assay on Candida glabrata is given as 3 (A grade of 3 represents an MIC of less than 1 mg/L). Besides, the “Candida MIC, C. krusei” value in the assay with Candida krusei is given as 3 (A grade of 3 represents an MIC of less than 1 mg/L). Further, the “Candida MIC, C. parapsilosis” value in the assay with Candida parapsilosis is 3 (A grade of 3 represents an MIC of less than 1 mg/L). In addition, in the assay with Candida tropicalis, the “Candida MIC, C. tropicalis” value is on record as 2 (A grade of 2 represents an MIC of from 1 to 10 mg/L).

In the case of `COC(=O)Cn1ccc(C(C)C)c1C(=O)C(=O)Nc1ccc(N2CCN(c3cc(C)cc(C)n3)CC2)cc1` [Example 88], the “MIC grade, A. flavus” value against Aspergillus flavus [1] and with Aspergillus flavus [7] was 1 (a grade of 1 represents an MIC of greater than 10 mg/L) in each case. For the same compound, the “MIC grade, A. fumigatus 210” value in assay [2] and in [8] was 3 (A grade of 3 represents an MIC of less than 1 mg/L) each time. The “MIC grade, A. fumigatus” value in assay [3] and in [9] was 3 (A grade of 3 represents an MIC of less than 1 mg/L) in each case. Moreover, the “MIC grade, A. niger” value in the assay on Aspergillus niger [4] and in the assay with Aspergillus niger [10] was 2 (A grade of 2 represents an MIC of from 1 to 10 mg/L) each time. Further, the “MIC grade, A. terreus 49” value in the assay with Aspergillus terreus AT49 [5] and against Aspergillus terreus AT49 [11] was 1 (a grade of 1 represents an MIC of greater than 10 mg/L) throughout. Further, the “MIC grade, A. terreus” value was 2 (A grade of 2 represents an MIC of from 1 to 10 mg/L) against Aspergillus terreus AT4 [6] and 1 (a grade of 1 represents an MIC of greater than 10 mg/L) against Aspergillus terreus AT4 [12]. In addition, in the assay on Candida albicans, the “Candida MIC, C. albicans” value was 2 (A grade of 2 represents an MIC of from 1 to 10 mg/L). For the same compound, the “Candida MIC, C. glabrata” value in the assay on Candida glabrata is 3 (A grade of 3 represents an MIC of less than 1 mg/L). Moreover, the “Candida MIC, C. krusei” value with Candida krusei is reported as 3 (A grade of 3 represents an MIC of less than 1 mg/L). In the assay with Candida parapsilosis, the “Candida MIC, C. parapsilosis” value was 3 (A grade of 3 represents an MIC of less than 1 mg/L). Besides, the “Candida MIC, C. tropicalis” value in the assay on Candida tropicalis is 3 (A grade of 3 represents an MIC of less than 1 mg/L).

The term MIC denotes the lowest concentration that inhibits growth of the organism. On to `COCCn1ccc(-c2ccccc2)c1C(=O)C(=O)Nc1ccccc1` [Example 81, 2-[1-(2-Methoxy-ethyl)-3-phenyl-1H-pyrrol-2-yl]-2-oxo-N-phenyl-acetamide], for which the MIC (in the assay with Aspergillus flavus [1]; in assay [2]; in assay [3]; with Aspergillus niger [4]; in the assay on Aspergillus terreus AT49 [5]; with Aspergillus terreus AT4 [6]) was above 10 µg/mL each time. The MIC (with Aspergillus flavus [7]; in assay [8]; in assay [9]; with Aspergillus niger [10]; in the assay on Aspergillus terreus AT49 [11]; in the assay on Aspergillus terreus AT4 [12]) was above 10 µg/mL throughout. Besides, the MIC against Candida albicans, against Candida glabrata, against Candida krusei, in the assay with Candida parapsilosis and in the assay on Candida tropicalis was below 1 µg/mL in each case.

In the case of `COCCn1c(C)cc(-c2ccccc2)c1C(=O)C(=O)Nc1ccc(N2CCCCC2)cc1F` [Example 114, N-(2-Fluoro-4-piperidin-1-yl-phenyl)-2-[1-(2-methoxy-ethyl)-5-methyl-3-phenyl-1H-pyrrol-2-yl]-2-oxo-acetamide], the MIC (with Aspergillus flavus [1]; in assay [2]; in assay [3]; in the assay with Aspergillus niger [4]; in the assay with Aspergillus terreus AT49 [5]; with Aspergillus terreus AT4 [6]) was below 1 µg/mL in each case. In addition, the MIC in the assay with Aspergillus flavus [7] was 1 to 10 µg/mL (≈ 2.16 to 21.6 µM); in assay [8], 1 to 10 µg/mL (≈ 2.16 to 21.6 µM); in assay [9] it was 1 to 10 µg/mL (≈ 2.16 to 21.6 µM); in the assay with Aspergillus niger [10], below 1 µg/mL; with Aspergillus terreus AT49 [11] it was 1 to 10 µg/mL (≈ 2.16 to 21.6 µM); in the assay with Aspergillus terreus AT4 [12], 1 to 10 µg/mL (≈ 2.16 to 21.6 µM). For the same compound, the MIC in the assay with Candida albicans, against Candida glabrata, with Candida krusei, against Candida parapsilosis and with Candida tropicalis was below 1 µg/mL throughout.

With `CNC(=O)Cn1ccc(-c2ccccc2)c1C(=O)C(=O)Nc1ccc(N2CCN(c3cc(C)cc(C)n3)CC2)cc1` [Example 76, N-{4-[4-(4,6-Dimethyl-pyridin-2-yl)-piperazin-1-yl]-phenyl}-2-(1-methylcarbamoylmethyl-3-phenyl-1H-pyrrol-2-yl)-2-oxo-acetamide], the MIC in the assay with Aspergillus flavus [1] is above 10 µg/mL; in [2] it was 1 to 10 µg/mL (≈ 1.82 to 18.2 µM); in assay [3], 1 to 10 µg/mL (≈ 1.82 to 18.2 µM); in the assay on Aspergillus niger [4] it was above 10 µg/mL; in the assay on Aspergillus terreus AT49 [5], above 10 µg/mL; in the assay on Aspergillus terreus AT4 [6], above 10 µg/mL. Also, the MIC in the assay with Aspergillus flavus [7] was above 10 µg/mL; in assay [8], 1 to 10 µg/mL (≈ 1.82 to 18.2 µM); in assay [9], above 10 µg/mL; in the assay on Aspergillus niger [10] it was above 10 µg/mL; in the assay on Aspergillus terreus AT49 [11] it was above 10 µg/mL; in the assay with Aspergillus terreus AT4 [12], above 10 µg/mL. For the same compound, the MIC against Candida albicans, in the assay with Candida glabrata, against Candida krusei, against Candida parapsilosis and against Candida tropicalis was below 1 µg/mL in each case.

With `COCCn1ccc(-c2ccsc2)c1C(=O)C(=O)Nc1ccc(N2CCN(c3cc(C)cc(C)n3)CC2)cc1` [Example 72, N-{4-[4-(4,6-Dimethyl-pyridin-2-yl)-piperazin-1-yl]-phenyl}-2-[1-(2-methoxy-ethyl)-3-thiophen-3-yl-1H-pyrrol-2-yl]-2-oxo-acetamide], the MIC in the assay on Aspergillus flavus [1] is 1 to 10 µg/mL (≈ 1.84 to 18.4 µM); in assay [2] it was below 1 µg/mL; in [3], below 1 µg/mL; with Aspergillus niger [4] it was below 1 µg/mL; with Aspergillus terreus AT49 [5], below 1 µg/mL; in the assay on Aspergillus terreus AT4 [6], below 1 µg/mL. Further, the MIC (with Aspergillus flavus [7]; in assay [8]; in assay [9]; in the assay on Aspergillus niger [10]; in the assay on Aspergillus terreus AT49 [11]; with Aspergillus terreus AT4 [12]) was 1 to 10 µg/mL (≈ 1.84 to 18.4 µM) each time. Besides, the MIC with Candida albicans is below 1 µg/mL; with Candida glabrata, below 1 µg/mL; against Candida krusei, 1 to 10 µg/mL (≈ 1.84 to 18.4 µM); in the assay on Candida parapsilosis it was below 1 µg/mL; against Candida tropicalis, below 1 µg/mL.
